Data reported in patent publication US8552013B2, “Heterocyclic compounds based on N6-substituted adenine, methods of their preparation, their use for preparation of drugs, cosmetic preparations and growth regulators, pharmaceutical preparations, cosmetic preparations and growth regulators containing these compounds” (USTAV Experimentalni Botaniky Akademie Ved Ceske Republiky, priority 2001, dated 2013).

What was measured:
Assay type in all cases: cell-based
[1] = tested on: human skin fibroblasts; test: Apoptosis assay in treated skin fibroblasts; conditions: 3 days of treatment; ortho 200 μM
[2] = tested on: human adult skin fibroblasts; test: Short-term growth of human skin fibroblasts (cell counts, Giemsa); conditions: for Cell growth versus untreated: 40 μM and 80 μM; for Cell proliferation (summary): all concentrations (40, 80, 200 and 500 μM); for appearance of dermal cells (summary): all doses 40, 80, 200 and 500 μM; for Cellular growth at higher concentrations: para 200 to 500 μM after 11 days, ortho 200 and 400 μM after 7 days, meta 400 μM
Method: All experiments were performed on early and mid passage cultures (about 20 to 40% lifespan completed) of normal human adult skin fibroblast line; designated ASF-2 & Senetek cell line (about 10-90% lifespan completed); designated as SF20. In order to check the effects of test compounds on senescent cells, late passage cells with more than 95% lifespan completed were used. ASF-2 and SF20 cell lines were established from a mammary skin biopsy obtained from a young, non-smoking and healthy […] at the time of breast reduction operation. Normal culture conditions of medium (DMEM) containing antibiotics, 10% foetal calf serum, and incubation at 37° C. with 95% humidity were used. The effects of the test chemicals were determined in the following conditions:
Short-term growth experiments were performed using 24-well tissue culture plates (growth area 1.9 cm^2). Freshly prepared cell suspensions from mass cultures of ASF-2 cells maintained in our labs were used. About 10,000 cells were seeded into 6 sets of 24-well plates. The cells were allowed to attach and stabilize for 24 hr in normal culture medium to achieve various final concentrations (range 40 to 500 μM). Culture medium was changed with the addition of test chemicals twice a week. The numbers of cells were counted after different days of treatment in 2 wells from each concentration of the test chemical, by following the normal method of cell trypsinization and counting using a Coultercounter. The third well in each category was fixed by cold methanol and stained with Giemsa stain for permanent record and for photography. The experiment was carried on for until the cultures became fully confluent and no further growth was possible.

[3] = tested on: senescent human skin fibroblasts; test: Numbers of surviving senescent cells (Coulter counter); conditions: 7 to 14 days of treatment
Method: Equal numbers of senescent cells were seeded in separate flasks and were treated with different concentrations of para-topolin. Cell numbers were determined by using a Coulter counter after trpsinization and resuspension of cells after 7 and 14 days of treatment.
Equal numbers of senescent cells were seeded in separate flasks and were treated with different concentrations of ortho-topolin. Cell numbers were determined by using a Coulter counter after trypsinisation and resuspension of cells, after 7 and 14 days of treatment.

[4] = tested on: human skin fibroblasts; test: beta-galactosidase staining of treated skin fibroblasts; conditions: short-term growth treatment

Oc1cccc(CNc2ncnc3nc[nH]c23)c1 [meta-topolin, 6-(3-hydroxybenzylamino)purine]
apoptosis assay [1]: cell death at 40 μM and above
Cell growth versus untreated [2]: almost similar
rate of growth ([2]; 200 μM): slowed down
Cell proliferation (summary) [2]: declined to a significant extent
appearance of dermal cells (summary) [2]: morbid in appearance
Cellular growth at higher concentrations [2]: almost no growth
numbers of surviving senescent cells [3]: reduces the number of surviving senescent cells in a dose dependent manner

Oc1ccccc1CNc1ncnc2nc[nH]c12 [ortho-topolin, 6-(2-hydroxybenzylamino)purine]
number of prematurely senescent cells, beta-galactosidase staining [4]: did not show any increase
apoptosis assay [1]: some induction of apoptosis
Cell growth versus untreated [2]: almost similar
Cell proliferation (summary) [2]: declined to a significant extent
appearance of dermal cells (summary) [2]: morbid in appearance
Cellular growth at higher concentrations [2]: almost a total inhibition
numbers of surviving senescent cells [3]: reduces the number of surviving senescent cells significantly
